Results taken from PMC4133103 (DNA repair, 2014).
Where two headings read alike, the source gives them in different places.

T1: Dpo4•DNA binary complex (Saccharolobus solfataricus, UniProt Q97W02)
T1 sequence (Q97W02 1-352): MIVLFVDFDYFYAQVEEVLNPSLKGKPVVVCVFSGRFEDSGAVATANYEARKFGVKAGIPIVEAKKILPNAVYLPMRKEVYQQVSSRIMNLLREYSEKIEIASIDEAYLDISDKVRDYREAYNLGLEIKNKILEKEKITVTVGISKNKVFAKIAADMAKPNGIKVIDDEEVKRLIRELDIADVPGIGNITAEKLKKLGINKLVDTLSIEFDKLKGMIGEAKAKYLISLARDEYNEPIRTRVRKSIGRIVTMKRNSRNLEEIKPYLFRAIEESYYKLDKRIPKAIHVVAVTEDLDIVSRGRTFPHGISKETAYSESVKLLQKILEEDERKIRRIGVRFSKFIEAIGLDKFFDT

T2: Dpo4 (DNA polymerase IV) (Sulfolobus solfataricus, UniProt Q97W02 1-352)
T2 sequence: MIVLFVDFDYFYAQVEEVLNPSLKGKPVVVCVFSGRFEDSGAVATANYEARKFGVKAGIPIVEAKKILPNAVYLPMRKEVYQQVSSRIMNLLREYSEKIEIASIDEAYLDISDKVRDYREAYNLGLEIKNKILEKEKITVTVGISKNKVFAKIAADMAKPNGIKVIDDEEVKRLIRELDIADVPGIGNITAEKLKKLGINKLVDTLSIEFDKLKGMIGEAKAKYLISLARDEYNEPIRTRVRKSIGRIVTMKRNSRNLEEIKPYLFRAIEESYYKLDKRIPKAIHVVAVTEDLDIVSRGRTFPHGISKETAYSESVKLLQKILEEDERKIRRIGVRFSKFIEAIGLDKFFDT


Assays:
[1] = test system: Salmonella typhimurium (TA98); settings: cited from earlier work
[2] = biological target: T1, Dpo4•DNA binary complex; test: Substrate specificity assay; assay type: biochemical, Sulfolobus solfataricus; settings: for Probability: efficiency/sum of efficiencies × 100; for kp / Kd: Dpo4 120 nM, 37 °C; for Fidelity: incorrect/(correct+incorrect) efficiency; for Kd: read-out: Kd,dNTP
[3] = test system: nucleotide excision repair-deficient human XPA cells; settings: cited from earlier work
[4] = biological target: T2, Dpo4 (DNA polymerase IV); test: EMSA
[5] = DNA substrate 18/26-mer-dG^C8-N-ABA
[6] = DNA substrate 18/26-mer-dG^C8-N-ABA vs control 18/26-mer
[7] = DNA substrate 19/26-mer-dG^C8-N-ABA
[8] = DNA substrate 19/26-mer-dG^C8-N-ABA 30 nM
[9] = DNA substrate 19/26-mer-dG^C8-N-ABA vs control 19/26-mer
[10] = DNA substrate 20/26-mer-dG^C8-N-ABA (pause site)
[11] = DNA substrate 20/26-mer-dG^C8-N-ABA vs control 20/26-mer
[12] = DNA substrate 20/26-mer-dG^C8-N-ABA
[13] = DNA substrate 21/26-mer-dG^C8-N-ABA (pause site)
[14] = DNA substrate 21/26-mer-dG^C8-N-ABA (pause site) 30 nM
[15] = DNA substrate 21/26-mer-dG^C8-N-ABA vs control 21/26-mer
[16] = DNA substrate 21/26-mer-dG^C8-N-ABA
[17] = DNA substrate 22/26-mer-dG^C8-N-ABA
[18] = DNA substrate 22/26-mer-dG^C8-N-ABA vs control 22/26-mer
[19] = DNA substrate 18/26-mer-dG^C8-N-ABA 30 nM
[20] = DNA substrate 21/26-mer-dG^C8-N-ABA (pause site, extension) 30 nM
[21] = DNA substrate 22/26-mer-dG^C8-N-ABA 30 nM
[22] = DNA substrate 20/26-mer-dG^C8-N-ABA (pause site) 30 nM

| Molecule | (kp/Kd, dNTP)damaged [2, 5] [M⁻¹ s⁻¹] | Efficiency Ratio (kp/Kd, dNTP)control/(kp/Kd, dNTP)damaged [2, 6] | Probability [2, 5] | (kp/Kd, dNTP)damaged [2, 7] [M⁻¹ s⁻¹] | kp [2, 8] | Efficiency Ratio (kp/Kd, dNTP)control/(kp/Kd, dNTP)damaged [2, 9] | Probability [2, 7] | Fidelity [2, 7] | (kp/Kd, dNTP)damaged [2, 10] [M⁻¹ s⁻¹] | Efficiency Ratio (kp/Kd, dNTP)control/(kp/Kd, dNTP)damaged [2, 11] | Probability [2, 12] | (kp/Kd, dNTP)damaged [2, 13] [M⁻¹ s⁻¹] | kp [2, 14] | Efficiency Ratio (kp/Kd, dNTP)control/(kp/Kd, dNTP)damaged [2, 15] | Probability [2, 16] | Fidelity [2, 16] | Efficiency Ratio (kp/Kd, dNTP)control/(kp/Kd, dNTP)damaged [2, 18] | Probability [2, 17] | Kd [2, 20] [µM] | Kd [2, 21] [µM] | other results |
| --- | --- | --- | --- | --- | --- | --- | --- | --- | --- | --- | --- | --- | --- | --- | --- | --- | --- | --- | --- | --- | --- |
| O=C1c2ccccc2-c2ccc([N+](=O)[O-])c3cccc1c23 [3-NBA, 3-Nitrobenzanthrone] | – | – | – | – | – | – | – | – | – | – | – | – | – | – | – | – | – | – | – | – | mutagenicity [1]: one of the most mutagenic compound ever tested |
| Nc1ncnc2c1ncn2[C@H]1C[C@H](O)[C@@H](COP(=O)(O)OP(=O)(O)OP(=O)(O)O)O1 [dATP] | 9.1 | 0.85 | 0.01 | 6.7 | (2.9 ± 0.2) × 10^−3 s^−1 | 2.1 | 0.07 | 7.0 × 10^−4 | 3 | 6.3 | 0.61 | 1 | (4.5 ± 0.2) × 10^−4 s^−1 | 2.4 | 3.83 | 4.3 × 10^−2 | 0.38 | 0.34 | 450 ± 50 | 470 ± 70 | Fidelity [2, 12]: 6.1 × 10^−4; (kp/Kd, dNTP)damaged [2, 17]: 11 M⁻¹ s⁻¹; Fidelity [2, 17]: 3.4 × 10^−4; Kd [2, 19]: 2200 ± 600 µM; Kd [2, 8]: 430 ± 60 µM |
| Cc1cn([C@H]2C[C@H](O)[C@@H](COP(=O)(O)OP(=O)(O)OP(=O)(O)O)O2)c(=O)[nH]c1=O [dTTP] | 16 | 5.4 | 0.02 | 5.5 | – | 1.6 | 0.05 | 5.7 × 10^−4 | 1.6 | 52 | 0.32 | 0.4 | (1.7 ± 0.1) × 10^−4 s^−1 | 4.5 | 1.57 | 1.8 × 10^−2 | 5.0 | 0.07 | 420 ± 80 | 770 ± 140 | (kp/Kd, dNTP)damaged [2, 17]: 2.2 M⁻¹ s⁻¹; Fidelity [2, 17]: 6.9 × 10^−4 |
| Nc1ccn([C@H]2C[C@H](O)[C@@H](COP(=O)(O)OP(=O)(O)OP(=O)(O)O)O2)c(=O)n1 [dCTP] | 88000 | 1.25 | 99.95 | 6.4 | (1.4 ± 0.2) × 10^−3 s^−1 | 22 | 0.06 | 6.7 × 10^−4 | 490 | 120 | 98.93 | 2.7 | (4.3 ± 0.1) × 10^−4 s^−1 | 12 | 10.34 | 1.1 × 10^−1 | 11 | 99.55 | 160 ± 20 | 1400 ± 300 | kp [2, 19]: 2.83 ± 0.08 s⁻¹; kp [2, 22]: 0.25 ± 0.02 s⁻¹; kp [2, 21]: 4.5 ± 0.7 s⁻¹; Kd [2, 19]: 32 ± 5 µM; Kd [2, 8]: 220 ± 80 µM |
| Nc1nc2c(ncn2[C@H]2C[C@H](O)[C@@H](COP(=O)(O)OP(=O)(O)OP(=O)(O)O)O2)c(=O)[nH]1 [dGTP] | 18 | 1.6 | 0.02 | 9600 | 0.48 ± 0.02 s⁻¹ | 2.6 | 99.82 | – | 0.68 | 66 | 0.14 | 22 | (8.9 ± 0.7) × 10^−4 s^−1 | 170 | 84.26 | – | 6.5 | 0.04 | 400 ± 80 | 1100 ± 200 | kp [2, 22]: (8.1 ± 0.1) × 10^−4 s^−1; Fidelity [2, 12]: 1.4 × 10^−4; (kp/Kd, dNTP)damaged [2, 17]: 1.3 M⁻¹ s⁻¹; Fidelity [2, 17]: 4.1 × 10^−4; Kd [2, 19]: 350 ± 40 µM; Kd [2, 8]: 50 ± 9 µM |
| Nc1nc2c(nc(Nc3ccc4c5c(cccc35)C(=O)c3ccccc3-4)n2[C@H]2C[C@H](O)[C@@H](CO)O2)c(=O)[nH]1 [dG^C8-N-ABA, N-(2’-deoxyguanosin-8-yl)-3-aminobenzanthrone] | – | – | – | – | – | – | – | – | – | – | – | – | – | – | – | – | – | – | – | – | replication block among the three major 3-NBA derived DNA adducts [3]: strongest replication block; mutational frequency ([3]; primarily G-to-A transitions followed by G-to-T transversions): 30.6% |
| 21/26-mer-dGC8-N-ABA (dsDNA, N-(2'-deoxyguanosin-8-yl)-3-aminobenzanthrone (dGC8-N-ABA) at G6 of strand 2 (from 5' end)) DNA 1: AACGACGGCCAGTGAATTCGC DNA 2: CCCGCGCGAATTCACTGGCCGTCGTT | – | – | – | – | – | – | – | – | – | – | – | – | – | – | – | – | – | – | – | – | Kd [4]: 0.029 ± 0.007 µM |
| 22/26-mer-dGC8-N-ABA (dsDNA, N-(2'-deoxyguanosin-8-yl)-3-aminobenzanthrone (dGC8-N-ABA) at G6 of strand 2 (from 5' end)) DNA 1: AACGACGGCCAGTGAATTCGCG DNA 2: CCCGCGCGAATTCACTGGCCGTCGTT | – | – | – | – | – | – | – | – | – | – | – | – | – | – | – | – | – | – | – | – | Kd [4]: 0.005 ± 0.0009 µM |
